# Source: patent US6878722B2, “Substituted cycloalkyl P1′ hepatitis C virus inhibitors” (Bristol-Myers Squibb Company, priority 2002, dated 2005)
# Read-outs that look alike come from different tables or passages of the source.
# Legend:
# [1] = system: HCV replicon in Huh7 cells; test: HCV replicon cell-based assay (FRET); settings: Hepatitis C virus
# From the text: An HCV replicon whole cell system was established as described by Lohmann V, Korner F, Koch J, Herian U, Theilmann L, Bartenschlager R., Science 285(5424):110-3 (1999). This system enabled us to evaluate the effects of our HCV Protease compounds on HCV RNA replication. Briefly, using the HCV strain 1B sequence described in the Lohmann paper (Assession number: AJ238799), an HCV cDNA was generated encoding the 5′ internal ribosome entry site (IRES), the neomycin resistance gene, the EMCV (encephalomyocarditis viurs)-IRES and the HCV nonstructural proteins, NS3-NS5B, and 3′ non-translated region (NTR). In vitro transcripts of the cDNA were transfected into the human hepatoma cell line, Huh7. […] Resulting cell lines were characterized for positive and negative strand RNA production and protein production over time.
# Huh7 cells, constitutively expressing the HCV replicon, were grown in Dulbecco's Modified Eagle Media (DMEM) containing 10% Fetal calf serum (FCS) and 1 mg/ml G418 (Gibco-BRL). Cells were seeded the night before (1.5×10^4 cells/well) in 96-well tissue-culture sterile plates. Compound and no compound controls were prepared in DMEM containing 4% FCS, 1:100 Penicillin/Streptomysin, 1:100 L-glutamine and 5% DMSO in the dilution plate (0.5% DMSO final concentration in the assay). Compound/DMSO mixes were added to the cells and incubated for 4 days at 37° C. After 4 days, plates were rinsed thoroughly with Phosphate-Buffered Saline (PBS) (3 times 150 μl). The cells were lysed with 25 μl of a lysis assay reagent containing the FRET peptide (RET S1, as described for the in vitro enzyme assay). The lysis assay reagent was made from 5× cell Luciferase cell culture lysis reagent(Promega #E153A) diluted to 1× with distilled water, NaCl added to 150 mM final, the FRET peptide diluted to 10 μM final from a 2 mM stock in 100% DMSO. The plate was then placed into the Cytofluor 4000 instrument which had been set to 340 nm excitation/490 emission, automatic mode for 21 cycles and the plate read in a kinetic mode. EC50 determinations were carried out as described for the IC50 determinations.
# [2] = biological target: T1, HCV NS3/4A protease complex (BMS strain, genotype 1a) (Hepatitis C virus genotype 1a, UniProt P27958, C1454S); test: Recombinant HCV NS3/4A protease complex FRET peptide assay, BMS strain; format: biochemical; settings: IC50 range, NS3/4A BMS Strain
# T1 construct: DNA encoding the recombinant HCV NS3/4A protease complex (amino acids 1027 to 1711) for these strains; inferred from the pET21b vector and Ni-NTA purification; made in house; host or cells: Escherichia coli BL21 (DE3), pET21b
# From the text: The purpose of this in vitro assay was to measure the inhibition of HCV NS3 protease complexes, derived from the BMS, H77C or J416S strains, as described below, by compounds of the present invention.
# Serum from an HCV-infected patient was obtained from Dr. T. Wright, San Francisco Hospital. An engineered full-length cDNA (compliment deoxyribonucleic acid) template of the HCV genome (BMS strain) was constructed from DNA fragments obtained by reverse transcription-PCR (RT-PCR) of serum RNA (ribonucleic acid) and using primers selected on the basis of homology between other genotype 1a strains. […] The infectious clones, H77C (1a genotype) and J4L6S (1b genotype) were obtained from R. Purcell (NIH) and the sequences are published in Genbank (AAB67036, see Yanagi,M., Purcell,R. H., Emerson,S. U. and Bukh,J. Proc. Natl. Acad. Sci. U.S.A. 94(16),8738-8743 (1997); AF054247, see Yanagi,M., St Claire,M., Shapiro,M., Emerson,S. U., Purcell,R. H. and Bukh,J, Virology 244 (1), 161-172. (1998)).
# The BMS, H77C and J4L6S strains were used for production of recombinant NS3/4A protease complexes. DNA encoding the recombinant HCV NS3/4A protease complex (amino acids 1027 to 1711) for these strains were manipulated as described by P. Gallinari et al. (see Gallinari P, Paolini C, Brennan D, Nardi C, Steinkuhler C, De Francesco R. Biochemistry. 38(17):5620-32, (1999)). Briefly, a three-lysine solubilizing tail was added at the 3′-end of the NS4A coding region. The cysteine in the P1 position of the NS4A-NS4B cleavage site (amino acid 1711) was changed to a glycine to avoid the proteolytic cleavage of the lysine tag. Furthermore, a cysteine to serine mutation was introduced by PCR at amino acid position 1454 to prevent the autolytic cleavage in the NS3 helicase domain. The variant DNA fragment was cloned in the pET21b bacterial expression vector (Novagen) and the NS3/4A complex was expressed in Escherichia. coli strain BL21 (DE3) (Invitrogen) following the protocol described by P. Gallinari et al. (see Gallinari P, Brennan D, Nardi C, Brunetti M, Tomei L, Steinkuhler C, De Francesco R., J. Virol. 72(8):6758-69 (1998)) with modifications. Briefly, NS3/4A expression was induced with 0.5 mM Isopropyl β-D-1-thiogalactopyranoside (IPTG) for 22 hr at 20° C. […] The cells were resuspended in lysis buffer (10 mL/g) consisting of 25 mM N-(2-Hydroxyethyl)Piperazine-N′-(2-Ethane Sulfonic acid) (HEPES), pH 7.5, 20% glycerol, 500 mM Sodium Chloride (NaCl), 0.5% Triton-X100, 1 ug/ml lysozyme, 5 mM Magnesium Chloride (MgCl2), 1 ug/ml DnaseI, 5 mM β-Mercaptoethanol (βME), Protease inhibitor—Ethylenediamine Tetraacetic acid (EDTA) free (Roche), homogenized and incubated for 20 mins at 4° C. The homogenate was sonicated and clarified by ultra-centrifugation at 235000 g for 1 hr at 4° C. Imidazole was added to the supernatant to a final concentration of 15 mM and the pH adjusted to 8.0. The crude protein extract was loaded on a Nickel-Nitrilotriacetic acid (Ni-NTA) column pre-equilibrated with buffer B (25 mM HEPES, pH 8.0, 20% glycerol, 500 mM NaCl, 0.5% Triton-X100, 15 mM imidazole, 5 mM βME). The sample was loaded at a flow rate of 1 mL/min. The column was washed with 15 column volumes of buffer C (same as buffer B except with 0.2% Triton-X100). The protein was eluted with 5 column volumes of buffer D (same as buffer C except with 200 mM Imidazole).
# NS3/4A protease complex-containing fractions were pooled and loaded on a desalting column Superdex-S200 pre-equilibrated with buffer D (25 mM HEPES, pH7.5, 20% glycerol, 300 mM NaCl, 0.2% Triton-X100, 10 mM βME).
# [3] = Huh-7, HCV replicon, read-out: EC50 range
# T1 sequence (P27958 1658-1714, looked up, stated change not applied): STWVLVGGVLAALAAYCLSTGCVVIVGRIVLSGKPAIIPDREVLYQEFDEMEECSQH
# T1 sequence (P27958 1027-1657, looked up, stated change not applied): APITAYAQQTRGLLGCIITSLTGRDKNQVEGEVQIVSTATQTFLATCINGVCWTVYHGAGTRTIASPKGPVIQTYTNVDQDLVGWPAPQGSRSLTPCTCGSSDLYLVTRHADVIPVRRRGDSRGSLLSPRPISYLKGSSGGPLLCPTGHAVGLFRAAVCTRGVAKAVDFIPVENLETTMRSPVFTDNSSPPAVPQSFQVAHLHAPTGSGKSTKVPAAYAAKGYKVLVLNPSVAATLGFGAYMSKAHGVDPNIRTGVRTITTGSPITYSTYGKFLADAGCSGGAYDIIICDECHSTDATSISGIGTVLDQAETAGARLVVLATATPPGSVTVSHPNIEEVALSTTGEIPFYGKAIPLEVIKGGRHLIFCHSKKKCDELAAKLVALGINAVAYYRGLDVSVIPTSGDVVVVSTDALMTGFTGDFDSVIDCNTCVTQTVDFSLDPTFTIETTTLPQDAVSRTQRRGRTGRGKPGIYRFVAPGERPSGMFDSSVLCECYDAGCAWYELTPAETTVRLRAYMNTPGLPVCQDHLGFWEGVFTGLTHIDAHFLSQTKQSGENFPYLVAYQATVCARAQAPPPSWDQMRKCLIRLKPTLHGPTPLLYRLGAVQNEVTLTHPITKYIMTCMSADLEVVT
Compound,"EC50 [1, 3]",IC50 [2],"EC50 ([1]; Huh-7, read-out: EC50 range)"
"COc1ccc2c(O[C@@H]3C[C@@H](C(=O)NC4(C(=O)NS(=O)(=O)C5(CC6CC6)CC5)CC45CC5)N(C(=O)[C@@H](NC(=O)OC(C)(C)C)C(C)(C)C)C3)cc(-c3ccccc3)nc2c1 (mixture of isomers) [Compound 202, {1-[2-[1-(1-Cyclopropylmethyl-cyclopropanesulfonylaminocarbonyl)-spiro[2.2]pent-1-ylcarbamoyl]-4-(7-methoxy-2-phenyl-quinolin-4-yloxy)-pyrrolidine-1-carbonyl]-2,2-dimethyl-propyl}-carbamic acid tert-butyl ester]",500 to 5000 nM,50 to 500 nM,–
"C=C[C@@H]1C[C@]1(NC(=O)[C@@H]1C[C@@H](Oc2cc(-c3ccccc3)nc3cc(OC)ccc23)CN1C(=O)[C@@H](NC(=O)OC(C)(C)C)C(C)(C)C)C(=O)NS(=O)(=O)C1(Cl)CC1 [Compound 38, {1-[2-[1-(1-Chloro-cyclopropanesulfonylaminocarbonyl)-2-vinyl-cyclopropylcarbamoyl]-4-(7-methoxy-2-phenyl-quinolin-4-yloxy)-pyrrolidine-1-carbonyl]-2,2-dimethyl-propyl}-carbamic acid tert-butyl ester]",< 50 nM,< 50 nM,–
"COc1ccc2c(O[C@@H]3C[C@@H](C(=O)NC4(C(=O)NS(=O)(=O)C5(C6=CCCCC6)CC5)CC4)N(C(=O)[C@@H](NC(=O)OC(C)(C)C)C(C)(C)C)C3)cc(-c3ccccc3)nc2c1 [Compound 76, {1-[2-[1-(1-Cyclohex-1-enyl-cyclopropanesulfonylaminocarbonyl)-cyclopropylcarbamoyl]-4-(7-methoxy-2-phenyl-quinolin-4-yloxy)-pyrrolidine-1-carbonyl]-2,2-dimethyl-propyl}-carbamic acid tert-butyl ester]",500 to 5000 nM,50 to 500 nM,–
C=C[C@@H]1C[C@]1(NC(=O)[C@@H]1C[C@@H](Oc2cc(-c3ccccc3)nc3cc(OC)ccc23)CN1C(=O)[C@@H](NC(=O)OC1(C(=O)OCC)CC1)C(C)(C)C)C(=O)NS(=O)(=O)C1(Cc2ccccc2)CC1 [Compound 81],–,50 to 500 nM,50 to 500 nM
C=C[C@@H]1C[C@]1(NC(=O)C1C[C@@H](Oc2cc(-c3ccccc3)nc3cc(OC)ccc23)CN1C(=O)[C@@H](NC(=O)[C@@H](OC)c1ccccc1)C(C)(C)C)C(=O)NS(=O)(=O)C1(CC2CC2)CC1 (stereo partly drawn) [Compound 119],50 to 500 nM,< 50 nM,–
C=C[C@@H]1C[C@]1(NC(=O)[C@@H]1C[C@@H](Oc2cc(-c3ccccc3)nc3cc(OC)ccc23)CN1C(=O)[C@@H](NC(=O)Oc1ccc(F)cc1)C(C)(C)C)C(=O)NS(=O)(=O)C1(Cc2ccccc2)CC1 [Compound 102],500 to 5000 nM,50 to 500 nM,–
C=C[C@@H]1C[C@]1(NC(=O)[C@@H]1C[C@@H](Oc2cc(-c3ccccc3)nc3cc(OC)ccc23)CN1C(=O)[C@@H](NC(=O)OC(C)(C)C)C(C)(C)C)C(=O)NS(=O)(=O)C1(CC)CC1 [Compound 28],< 50 nM,< 50 nM,–
"C=C[C@@H]1C[C@]1(NC(=O)[C@@H]1C[C@@H](Oc2cc(-c3ccccc3)nc3cc(OC)ccc23)CN1C(=O)[C@@H](NC(=O)NCC)C(C)(C)C)C(=O)NS(=O)(=O)C1(Cc2ccccc2)CC1 [Compound 61, 1-[2-(3-Ethyl-ureido)-3,3-dimethyl-butyryl]-4-(7-methoxy-2-phenyl-quinolin-4-yloxy)-pyrrolidine-2-carboxylic acid [1-(1-benzyl-cyclopropanesulfonylaminocarbonyl)-2-vinyl-cyclopropyl]-amide]",50 to 500 nM,< 50 nM,–
"C=CCC1(S(=O)(=O)NC(=O)[C@@]2(NC(=O)[C@@H]3C[C@@H](Oc4ccnc5cc(Cl)ccc45)CN3C(=O)[C@@H](NC(=O)OC3CCCC3)C(C)(C)C)C[C@H]2C=C)CC1 [Compound 67, {1-[2-[1-(1-Allyl-cyclopropanesulfonylaminocarbonyl)-2-vinyl-cyclopropylcarbamoyl]-4-(7-chloro-quinolin-4-yloxy)-pyrrolidine-1-carbonyl]-2,2-dimethyl-propyl}-carbamic acid cyclopentyl ester]",50 to 500 nM,50 to 500 nM,–
"C=CCC1(S(=O)(=O)NC(=O)C2(NC(=O)[C@@H]3C[C@@H](Oc4cc(-c5ccccc5)nc5cc(OC)ccc45)CN3C(=O)[C@@H](NC(=O)OC(C)(C)C)C(C)(C)C)CC2)CC1 [Compound 75, {1-[2-[1-(1-Allyl-cyclopropanesulfonylaminocarbonyl)-cyclopropylcarbamoyl]-4-(7-methoxy-2-phenyl-quinolin-4-yloxy)-pyrrolidine-1-carbonyl]-2,2-dimethyl-propyl}-carbamic acid tert-butyl ester]",500 to 5000 nM,< 50 nM,–
"COc1ccc2c(O[C@@H]3C[C@@H](C(=O)NC4(C(=O)NS(=O)(=O)C5(Cc6ccccc6)CC5)CC4)N(C(=O)[C@@H](NC(=O)OC(C)(C)C)C(C)(C)C)C3)cc(-c3ccccc3)nc2c1 [Compound 74, {1-[2-[1-(1-Benzyl-cyclopropanesulfonylaminocarbonyl)-cyclopropylcarbamoyl]-4-(7-methoxy-2-phenyl-quinolin-4-yloxy)-pyrrolidine-1-carbonyl]-2,2-dimethyl-propyl}-carbamic acid tert-butyl ester]",5000 to 50000 nM,500 to 5000 nM,–
"C=C[C@@H]1C[C@]1(NC(=O)[C@@H]1C[C@@H](Oc2cc(-c3ccccc3)nc3cc(OC)ccc23)CN1C(=O)[C@@H](NC(=O)OC1CCOCC1)C(C)(C)C)C(=O)NS(=O)(=O)C1(Cc2ccccc2)CC1 [Compound 56, {1-[2-[1-(1-Benzyl-cyclopropanesulfonylaminocarbonyl)-2-vinyl-cyclopropylcarbamoyl]-4-(7-methoxy-2-phenyl-quinolin-4-yloxy)-pyrrolidine-1-carbonyl]-2,2-dimethyl-propyl}-carbamic acid tetrahydro-pyran-4-yl Ester]",50 to 500 nM,< 50 nM,–
